Measurements as given in PMC10313671, “Accelerating the prediction and discovery of peptide hydrogels with human-in-the-loop” (Nature Communications, 2023).
Where a SMILES comes first, the peptide text is derived from it.

Assays:
[1] = Transmission electron microscope (negative staining) of peptide assemblies; conditions: for Morphology: TEM, negative staining with uranyl acetate, 120 kV
Description: We used the negative staining technique to observe the morphologies formed by peptides. A micropipette was used to load 10 μL of sample solution to a carbon-coated copper grid, and we used a piece of filter paper to remove the excess solution. After rinsing the grid with the deionized water, we used uranyl acetate to stain the sample for 1 minute and then rinsed the grid with deionized water again.

[2] = Peptide hydrogel formation, vial-inverting method; type: physicochemical; design: key to EXP / GELATION: 0: no hydrogel; 1: hydrogel; conditions: for State: ultrasonication, standing 48 h; for Concentration: concentration at which the state was recorded: lowest of 30, 60, 90, 120 mM that gave a gel, 120 mM for non-gelating peptides; for GELATION: 1 = hydrogel, 0 = no hydrogel
Description: After validating the efficiency of APHC in predicting tetrapeptide hydrogels, we detailed the phase state of 165 synthesized tetrapeptides and the observed assembly behavior in an aqueous solution.
This work defines hydrogel formation as a self-supporting, non-flowing mixture of water and hydrogelator by the vial-inverting method. All purified tetrapeptides were dissolved in ultrapure water (to form a 30 mM solution initially), followed by the stepwise addition of 1 N NaOH solution to adjust the overall aqueous pH to 6.5–8.5. Meanwhile, a short-term ultrasonication treatment was applied after each pH adjustment to facilitate peptide solubilization and speed up peptide self-assembly. […] The mixture was allowed to stand in for another 48 h for complete hydrogelation. Upon the absence of gelation phenomenon during the aforementioned loops, we increased the peptide concentration (60 mM, 90 mM, and 120 mM were selected) and re-started such gelation operation loop to explore their gelation feasibility.

[3] = 120 mM peptide (highest tested) in ultrapure water, pH 6.5-8.5 (1 N NaOH), vial-inverting method, precipitate, sol, suspension = no gel
[4] = peptide concentration 120 mM, vial-inverting method
[5] = 90 mM peptide in ultrapure water, pH 6.5-8.5 (1 N NaOH), vial-inverting method, no gel at lower concentrations
[6] = peptide concentration 90 mM, vial-inverting method
[7] = 30 mM peptide in ultrapure water, pH adjusted to 6.5-8.5 with 1 N NaOH, vial-inverting method, concentration raised 30/60/90/120 mM until gelation
[8] = peptide concentration 30 mM, vial-inverting method
[9] = 60 mM peptide in ultrapure water, pH 6.5-8.5 (1 N NaOH), vial-inverting method, no gel at 30 mM
[10] = peptide concentration 60 mM, vial-inverting method

SMILES	Morphology ([1]; line of the table gives 120 mM)	State [2, 3]	Concentration [2] [µM]	GELATION [2, 4]	Morphology ([1]; line of the table gives 30 mM)	State [2, 7]	GELATION [2, 8]	also measured
CC(C)C[C@H](N)C(=O)N[C@@H](Cc1ccccc1)C(=O)N[C@@H](Cc1c[nH]c2ccccc12)C(=O)N[C@@H](CO)C(=O)O [LFWS] (H-LFWS-OH)	sphere	gel	120000	1				
CC(C)C[C@H](N)C(=O)NCC(=O)N[C@H](C(=O)N[C@@H](Cc1ccccc1)C(=O)O)C(C)C [LGVF] (H-LGVF-OH)	fibre	sol	120000	0				
CC[C@H](C)[C@H](NC(=O)[C@@H](NC(=O)[C@H](Cc1c[nH]cn1)NC(=O)[C@@H](N)CC(C)C)[C@@H](C)CC)C(=O)O [LHII] (H-LHII-OH)	aggregates	sol	120000	0				
CC[C@H](C)[C@H](NC(=O)[C@@H](N)CC(C)C)C(=O)N[C@@H](CCC(=O)O)C(=O)N[C@@H](CCSC)C(=O)O [LIEM] (H-LIEM-OH)			90000					Morphology ([1]; line of the table gives 90 mM): hybrid(sheet+fibre); State [2, 5]: gel; GELATION [2, 6]: 1
CC(C)C[C@H](NC(=O)[C@@H](N)CC(C)C)C(=O)N[C@@H](Cc1c[nH]cn1)C(=O)N[C@@H](Cc1ccccc1)C(=O)O [LLHF] (H-LLHF-OH)			30000		hybrid(sphere+fibre)	gel	1	
CC(C)C[C@H](NC(=O)[C@H](CC(C)C)NC(=O)[C@@H](N)CC(C)C)C(=O)N[C@@H](Cc1ccccc1)C(=O)O [LLLF] (H-LLLF-OH)			30000		aggregates	gel	1	
CC(C)C[C@H](NC(=O)[C@H](CC(C)C)NC(=O)[C@H](CC(C)C)NC(=O)[C@@H](N)CC(C)C)C(=O)O [LLLL] (H-LLLL-OH)			30000		needle	gel	1	
CC(C)C[C@H](NC(=O)[C@H](CC(C)C)NC(=O)[C@@H](N)CC(C)C)C(=O)N[C@@H](CO)C(=O)O [LLLS] (H-LLLS-OH)			30000		sheet	gel	1	
CC(C)C[C@H](NC(=O)[C@H](CC(C)C)NC(=O)[C@@H](N)CC(C)C)C(=O)N[C@@H](Cc1ccc(O)cc1)C(=O)O [LLLY] (H-LLLY-OH)			30000		hybrid(sphere+fibre)	gel	1	
CC(C)C[C@H](NC(=O)[C@@H](N)CC(C)C)C(=O)N[C@@H](CCCNC(=N)N)C(=O)N[C@@H](CCC(N)=O)C(=O)O [LLRQ] (H-LLRQ-OH)	aggregates	suspension	120000	0				
CC(C)C[C@H](NC(=O)[C@H](CO)NC(=O)[C@H](CC(C)C)NC(=O)[C@@H](N)CC(C)C)C(=O)O [LLSL] (H-LLSL-OH)			60000					Morphology ([1]; line of the table gives 60 mM): sheet; State [2, 9]: gel; GELATION [2, 10]: 1
CC(C)C[C@H](N)C(=O)N[C@@H](CCCNC(=N)N)C(=O)N[C@@H](Cc1ccccc1)C(=O)N[C@@H](Cc1c[nH]cn1)C(=O)O [LRFH] (H-LRFH-OH)	particle	sol	120000	0				morphology by TEM (in words) ([1]; aqueous solution or hydrogel, negative staining): aggregates with different sizes
CC(C)C[C@H](N)C(=O)N[C@@H](CO)C(=O)N[C@@H](Cc1ccccc1)C(=O)N[C@@H](Cc1c[nH]c2ccccc12)C(=O)O [LSFW] (H-LSFW-OH)			60000					Morphology ([1]; line of the table gives 60 mM): hybrid(sphere+fibre); State [2, 9]: gel; GELATION [2, 10]: 1
CC(C)C[C@H](NC(=O)[C@@H](NC(=O)[C@@H](N)CC(C)C)[C@@H](C)O)C(=O)N[C@@H](Cc1ccccc1)C(=O)O [LTLF] (H-LTLF-OH)			30000		sheet	gel	1	
CC[C@H](C)[C@H](NC(=O)[C@H](CC(C)C)NC(=O)[C@@H](NC(=O)[C@@H](N)CC(C)C)[C@@H](C)O)C(=O)O [LTLI] (H-LTLI-OH)			30000		sheet	gel	1	
CC(C)C[C@H](N)C(=O)N[C@H](C(=O)N[C@@H](Cc1c[nH]c2ccccc12)C(=O)N[C@@H](Cc1ccccc1)C(=O)O)[C@@H](C)O [LTWF] (H-LTWF-OH)	aggregates	sol	120000	0				
CC[C@H](C)[C@H](NC(=O)[C@H](C)NC(=O)[C@@H](NC(=O)[C@@H](N)CC(C)C)C(C)C)C(=O)O [LVAI] (H-LVAI-OH)			60000					Morphology ([1]; line of the table gives 60 mM): fibre; State [2, 9]: gel; GELATION [2, 10]: 1
CC(C)C[C@H](N)C(=O)N[C@H](C(=O)N[C@@H](Cc1ccccc1)C(=O)N[C@@H](Cc1ccccc1)C(=O)O)C(C)C [LVFF]			30000		sphere	gel	1	
CC(C)C[C@H](N)C(=O)N[C@H](C(=O)N[C@@H](Cc1ccccc1)C(=O)NCC(=O)O)C(C)C [LVFG] (H-LVFG-OH)			60000					Morphology ([1]; line of the table gives 60 mM): aggregates; State [2, 9]: gel; GELATION [2, 10]: 1
CC(C)C[C@H](N)C(=O)N[C@H](C(=O)N[C@@H](Cc1c[nH]cn1)C(=O)N[C@@H](Cc1ccccc1)C(=O)O)C(C)C [LVHF] (H-LVHF-OH)			30000		hybrid(sphere+fibre)	gel	1	
CC[C@H](C)[C@H](NC(=O)[C@@H](NC(=O)[C@@H](N)CC(C)C)C(C)C)C(=O)N[C@@H](Cc1ccccc1)C(=O)O [LVIF] (H-LVIF-OH)			60000					Morphology ([1]; line of the table gives 60 mM): fibre; State [2, 9]: gel; GELATION [2, 10]: 1
CC[C@H](C)[C@H](NC(=O)[C@@H](NC(=O)[C@@H](NC(=O)[C@@H](N)CC(C)C)C(C)C)[C@@H](C)CC)C(=O)O [LVII] (H-LVII-OH)			30000		sheet	gel	1	
CC[C@H](C)[C@H](NC(=O)[C@@H](NC(=O)[C@@H](N)CC(C)C)C(C)C)C(=O)N[C@@H](Cc1ccc(O)cc1)C(=O)O [LVIY] (H-LVIY-OH)	sheet	gel	120000	1				
CC[C@H](C)[C@H](NC(=O)[C@H](CC(C)C)NC(=O)[C@@H](NC(=O)[C@@H](N)CC(C)C)C(C)C)C(=O)O [LVLI] (H-LVLI-OH)			30000		sheet	gel	1	
CC(C)C[C@H](N)C(=O)N[C@H](C(=O)N1CCC[C@H]1C(=O)N[C@@H](Cc1ccccc1)C(=O)O)C(C)C [LVPF] (H-LVPF-OH)	aggregates	sol	120000	0				
CC(C)C[C@H](N)C(=O)N[C@H](C(=O)N[C@@H](Cc1c[nH]c2ccccc12)C(=O)N[C@@H](Cc1ccccc1)C(=O)O)C(C)C [LVWF] (H-LVWF-OH)			90000					Morphology ([1]; line of the table gives 90 mM): needle; State [2, 5]: gel; GELATION [2, 6]: 1
CC(C)C[C@H](N)C(=O)N[C@@H](Cc1c[nH]c2ccccc12)C(=O)N[C@@H](Cc1ccccc1)C(=O)N[C@@H](Cc1ccccc1)C(=O)O [LWFF] (H-LWFF-OH)			30000		hybrid(sheet+fibre)	gel	1	
CC[C@H](C)[C@H](NC(=O)[C@H](Cc1ccccc1)NC(=O)[C@H](Cc1c[nH]c2ccccc12)NC(=O)[C@@H](N)CC(C)C)C(=O)O [LWFI] (H-LWFI-OH)	aggregates	sol	120000	0				
CC(C)C[C@H](N)C(=O)N[C@@H](Cc1c[nH]c2ccccc12)C(=O)N[C@@H](Cc1ccccc1)C(=O)N[C@@H](Cc1c[nH]c2ccccc12)C(=O)O [LWFW] (H-LWFW-OH)			30000		sphere	gel	1	CONCENTRATION (at which the hydrogel formed) ([2]; hydrogel-forming peptides only, vial-inverting method): 30000 µM
CC(C)C[C@H](N)C(=O)N[C@@H](Cc1c[nH]c2ccccc12)C(=O)N[C@@H](Cc1c[nH]c2ccccc12)C(=O)N[C@@H](Cc1ccccc1)C(=O)O [LWWF] (H-LWWF-OH)			30000		aggregates	gel	1	
